Assay: 7-day pilot intranasal toxicity and toxicokinetic study in rats
Settings: for C1 (peak concentration following 1st instillation) / C2 (peak concentration following 2nd instillation) / C3 (peak concentration following 3rd instillation) / DN AUC0-t (dose-normalized) / AUC(0-t) / Cmax / Tmax: intranasal TID; for AUC(0-t): AUC0-t
[1] = Female, Day 1, 0.9 mg/day (0.5%)
[2] = Female, Day 1, 10.8 mg/day (6%)
[3] = Female, Day 7, 0.9 mg/day (0.5%)
[4] = Female, Day 7, 10.8 mg/day (6%)
[5] = female, rat, plasma, inhaled or intranasal, 0.9 mg/day, Female, Day 1, 0.9 mg/day (0.5%)
[6] = female, rat, plasma, inhaled or intranasal, 0.9 mg/day, Female, Day 7, 0.9 mg/day (0.5%)
[7] = female, rat, plasma, inhaled or intranasal, 3.6 mg/day, Female, Day 1, 3.6 mg/day (2%)
[8] = female, rat, plasma, inhaled or intranasal, 3.6 mg/day, Female, Day 7, 3.6 mg/day (2%)
[9] = female, rat, plasma, inhaled or intranasal, 10.8 mg/day, Female, Day 1, 10.8 mg/day (6%)
[10] = female, rat, plasma, inhaled or intranasal, 10.8 mg/day, Female, Day 7, 10.8 mg/day (6%)
[11] = male, rat, plasma, inhaled or intranasal, 0.9 mg/day, Male, Day 1, 0.9 mg/day (0.5%)
[12] = male, rat, plasma, inhaled or intranasal, 0.9 mg/day, Male, Day 7, 0.9 mg/day (0.5%)
[13] = male, rat, plasma, inhaled or intranasal, 3.6 mg/day, Male, Day 1, 3.6 mg/day (2%)
[14] = male, rat, plasma, inhaled or intranasal, 3.6 mg/day, Male, Day 7, 3.6 mg/day (2%)

Experimental: The study design was as follows:
The following parameters and end points were evaluated in this study; clinical signs, body weights, body weight gain, food consumption, ophthalmology, toxicokinetic parameters, gross necropsy findings, organ weights, and histopathologic examination of select tissues, including nasal cavity at levels I-IV and detailed ocular histopathology for all dose groups: histopathology for brain, pharynx, larynx, trachea, lung, and select target tissues (i.e., adrenal gland, liver, and spleen) that were identified in a GLP 13-week oral toxicity study in rats (DSE 2004-0356) in group 1 and 4 animals, and gross lesions.

C(=C\[C@H]1CCNC1)/c1cncnc1 [Compound 1, (R)-5-((E)-2-pyrrolidin-3-ylvinyl)pyrimidine]
C1 (peak concentration following 1st instillation) [1]: 26.1 ng/mL
C2 (peak concentration following 2nd instillation) [1]: 34.8 ng/mL
C3 (peak concentration following 3rd instillation) [1]: 34.9 ng/mL
DN AUC0-t (dose-normalized) [1]: 154 (ng*h/mL)/(mg)
C1 (peak concentration following 1st instillation) (Female, Day 1, 3.6 mg/day (2%)): 50.2 ng/mL
C2 (peak concentration following 2nd instillation) (Female, Day 1, 3.6 mg/day (2%)): 119 ng/mL
C3 (peak concentration following 3rd instillation) (Female, Day 1, 3.6 mg/day (2%)): 278 ng/mL
DN AUC0-t (dose-normalized) (Female, Day 1, 3.6 mg/day (2%)): 174 (ng*h/mL)/(mg)
C1 (peak concentration following 1st instillation) [2]: 326 ng/mL
C2 (peak concentration following 2nd instillation) [2]: 481 ng/mL
C3 (peak concentration following 3rd instillation) [2]: 329 ng/mL
DN AUC0-t (dose-normalized) [2]: 386 (ng*h/mL)/(mg)
C1 (peak concentration following 1st instillation) [3]: 20.3 ng/mL
C2 (peak concentration following 2nd instillation) [3]: 16.3 ng/mL
C3 (peak concentration following 3rd instillation) [3]: 37.5 ng/mL
DN AUC0-t (dose-normalized) [3]: 164 (ng*h/mL)/(mg)
C1 (peak concentration following 1st instillation) (Female, Day 7, 3.6 mg/day (2%)): 68.0 ng/mL
C2 (peak concentration following 2nd instillation) (Female, Day 7, 3.6 mg/day (2%)): 79.9 ng/mL
C3 (peak concentration following 3rd instillation) (Female, Day 7, 3.6 mg/day (2%)): 76.0 ng/mL
DN AUC0-t (dose-normalized) (Female, Day 7, 3.6 mg/day (2%)): 93.5 (ng*h/mL)/(mg)
C1 (peak concentration following 1st instillation) [4]: 218 ng/mL
C2 (peak concentration following 2nd instillation) [4]: 224 ng/mL
C3 (peak concentration following 3rd instillation) [4]: 210 ng/mL
DN AUC0-t (dose-normalized) [4]: 137 (ng*h/mL)/(mg)
C1 (peak concentration following 1st instillation) (Male, Day 1, 0.9 mg/day (0.5%)): 51.9 ng/mL
C2 (peak concentration following 2nd instillation) (Male, Day 1, 0.9 mg/day (0.5%)): 36.3 ng/mL
C3 (peak concentration following 3rd instillation) (Male, Day 1, 0.9 mg/day (0.5%)): 54.2 ng/mL
C1 (peak concentration following 1st instillation) (Male, Day 1, 3.6 mg/day (2%)): 86.4 ng/mL
C2 (peak concentration following 2nd instillation) (Male, Day 1, 3.6 mg/day (2%)): 343 ng/mL
C3 (peak concentration following 3rd instillation) (Male, Day 1, 3.6 mg/day (2%)): 134 ng/mL
DN AUC0-t (dose-normalized) (Male, Day 1, 3.6 mg/day (2%)): 230 (ng*h/mL)/(mg)
C1 (peak concentration following 1st instillation) (Male, Day 1, 10.8 mg/day (6%)): 208 ng/mL
C2 (peak concentration following 2nd instillation) (Male, Day 1, 10.8 mg/day (6%)): 332 ng/mL
C3 (peak concentration following 3rd instillation) (Male, Day 1, 10.8 mg/day (6%)): 924 ng/mL
DN AUC0-t (dose-normalized) (Male, Day 1, 10.8 mg/day (6%)): 157 (ng*h/mL)/(mg)
C1 (peak concentration following 1st instillation) (Male, Day 7, 0.9 mg/day (0.5%)): 12.4 ng/mL
C2 (peak concentration following 2nd instillation) (Male, Day 7, 0.9 mg/day (0.5%)): 28.0 ng/mL
C3 (peak concentration following 3rd instillation) (Male, Day 7, 0.9 mg/day (0.5%)): 33.7 ng/mL
C1 (peak concentration following 1st instillation) (Male, Day 7, 3.6 mg/day (2%)): 110 ng/mL
C2 (peak concentration following 2nd instillation) (Male, Day 7, 3.6 mg/day (2%)): 53.8 ng/mL
C3 (peak concentration following 3rd instillation) (Male, Day 7, 3.6 mg/day (2%)): 25.5 ng/mL
DN AUC0-t (dose-normalized) (Male, Day 7, 3.6 mg/day (2%)): 82.7 (ng*h/mL)/(mg)
C1 (peak concentration following 1st instillation) (Male, Day 7, 10.8 mg/day (6%)): 166 ng/mL
C2 (peak concentration following 2nd instillation) (Male, Day 7, 10.8 mg/day (6%)): 209 ng/mL
C3 (peak concentration following 3rd instillation) (Male, Day 7, 10.8 mg/day (6%)): 225 ng/mL
DN AUC0-t (dose-normalized) (Male, Day 7, 10.8 mg/day (6%)): 81.3 (ng*h/mL)/(mg)
half-life (both, rat, plasma, inhaled or intranasal): 1.4 h
AUC(0-t) [5]: 138 ng·h/mL
AUC(0-t) [6]: 148 ng·h/mL
Cmax [5]: 34.9 ng/mL
Cmax [6]: 37.5 ng/mL
Tmax [5]: 12.1 h
Tmax [6]: 12.1 h
AUC(0-t) [7]: 626 ng·h/mL
AUC(0-t) [8]: 336 ng·h/mL
Cmax [7]: 278 ng/mL
Cmax [8]: 79.9 ng/mL
Tmax [7]: 12.1 h
Tmax [8]: 6.08 h
AUC(0-t) [9]: 4170 ng·h/mL
AUC(0-t) [10]: 1480 ng·h/mL
Cmax [9]: 481 ng/mL
Cmax [10]: 224 ng/mL
Tmax [9]: 6.08 h
Tmax [10]: 6.08 h
Cmax [11]: 54.2 ng/mL
Cmax [12]: 33.7 ng/mL
Tmax [11]: 12.1 h
Tmax [12]: 12.1 h
AUC(0-t) [13]: 829 ng·h/mL
AUC(0-t) [14]: 298 ng·h/mL
Cmax [13]: 343 ng/mL
Cmax [14]: 110 ng/mL
